This is an account of results in patent US20230256058A1 (MAPI PHARMA LTD., priority 2020, published 2023).

The conditions of series [1]: in vivo; cited from earlier work.
Series [2] in a line: Plasma concentrations of liraglutide formulations in db/db mice. It is filed as in vivo. To be noted: 200 μg/kg SC daily. The protocol: Treatment Groups: 1. Naïve control normal mice (n=6) • 2. Placebo (vehicle) control db/db mice (n=8) • 3.
• Ad lib fed blood glucose levels were recorded every 3rd day throughout the study period i.e. on Day-1, Day-3, Day-6, Day-9, Day-12, Day-15, Day-18, Day-21, Day-24, and Day-27. […] (before treatment) and 3 hr. post treatment. • On Day-1 and Day-28, blood samples were collected for the measurement of HbA1C levels. • Body weight and feed intake were recorded every day throughout treatment period.

For series [3] the following is noted: cited from earlier work.

Take GLP-1: in series [1], the Pharmacokinetic half-life is 2 to 5 min.

`CCCCCCCCCCCCCCCC(=O)N[C@@H](CCC(=O)NCCCC[C@H](NC(=O)[C@H](C)NC(=O)[C@H](C)NC(=O)[C@H](CCC(N)=O)NC(=O)CNC(=O)[C@H](CCC(=O)O)NC(=O)[C@H](CC(C)C)NC(=O)[C@H](Cc1ccc(O)cc1)NC(=O)[C@H](CO)NC(=O)[C@H](CO)NC(=O)[C@@H](NC(=O)[C@H](CC(=O)O)NC(=O)[C@H](CO)NC(=O)[C@@H](NC(=O)[C@H](Cc1ccccc1)NC(=O)[C@@H](NC(=O)CNC(=O)[C@H](CCC(=O)O)NC(=O)[C@H](C)NC(=O)[C@@H](N)Cc1cnc[nH]1)[C@@H](C)O)[C@@H](C)O)C(C)C)C(=O)N[C@@H](CCC(=O)O)C(=O)N[C@@H](Cc1ccccc1)C(=O)N[C@H](C(=O)N[C@@H](C)C(=O)N[C@@H](Cc1c[nH]c2ccccc12)C(=O)N[C@@H](CC(C)C)C(=O)N[C@H](C(=O)N[C@@H](CCCNC(=N)N)C(=O)NCC(=O)N[C@@H](CCCNC(=N)N)C(=O)NCC(=O)O)C(C)C)[C@@H](C)CC)C(=O)O` [L-API, liraglutide]: the “Plasma levels (in words)” value in series [2] (post 3 hr. of injection) was “increase in plasma levels”; in series [2] (post 24 hr. of treatment) it was “detectable plasma levels”. Also, the “Steady state therapeutic plasma concentration” value in series [3] (VICTOZA Prescribing Information) is recorded as “about 128 ng/mL”. Further, in series [3] (human, Ingwersen S. H. et al. J. Clin. Pharmacol. 2012), the “Human range for clinically effective concentrations” value was 5 to 45 nmol/L.
